ChEMBL document CHEMBL1137416, “Hydrophobic effect and hydrogen bonds account for the improved activity of a complement inhibitor, compstatin” (J Med Chem, 2006)

Biological target: Complement C3 (Homo sapiens, UniProt P01024)
Test: Inhibition of complement C3

Complement C3, sequence (P01024 23-667 limits assumed): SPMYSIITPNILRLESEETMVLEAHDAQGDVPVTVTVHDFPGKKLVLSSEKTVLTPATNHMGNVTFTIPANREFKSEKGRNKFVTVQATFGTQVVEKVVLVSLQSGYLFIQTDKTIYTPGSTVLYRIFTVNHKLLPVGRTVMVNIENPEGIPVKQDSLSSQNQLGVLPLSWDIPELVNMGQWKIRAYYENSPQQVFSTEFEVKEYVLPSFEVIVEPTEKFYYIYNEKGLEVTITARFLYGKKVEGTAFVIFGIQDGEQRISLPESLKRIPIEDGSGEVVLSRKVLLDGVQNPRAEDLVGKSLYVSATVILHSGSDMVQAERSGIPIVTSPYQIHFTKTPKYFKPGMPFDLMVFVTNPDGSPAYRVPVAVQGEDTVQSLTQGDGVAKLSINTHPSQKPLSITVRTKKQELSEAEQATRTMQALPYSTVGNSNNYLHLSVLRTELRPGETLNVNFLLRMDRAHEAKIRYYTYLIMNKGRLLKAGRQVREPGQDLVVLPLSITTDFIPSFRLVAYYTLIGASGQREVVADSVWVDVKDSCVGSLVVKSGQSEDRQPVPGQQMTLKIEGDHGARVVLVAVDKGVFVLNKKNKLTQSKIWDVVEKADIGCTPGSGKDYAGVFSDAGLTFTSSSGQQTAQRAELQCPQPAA
Complement C3, sequence (P01024 672-1663 limits assumed): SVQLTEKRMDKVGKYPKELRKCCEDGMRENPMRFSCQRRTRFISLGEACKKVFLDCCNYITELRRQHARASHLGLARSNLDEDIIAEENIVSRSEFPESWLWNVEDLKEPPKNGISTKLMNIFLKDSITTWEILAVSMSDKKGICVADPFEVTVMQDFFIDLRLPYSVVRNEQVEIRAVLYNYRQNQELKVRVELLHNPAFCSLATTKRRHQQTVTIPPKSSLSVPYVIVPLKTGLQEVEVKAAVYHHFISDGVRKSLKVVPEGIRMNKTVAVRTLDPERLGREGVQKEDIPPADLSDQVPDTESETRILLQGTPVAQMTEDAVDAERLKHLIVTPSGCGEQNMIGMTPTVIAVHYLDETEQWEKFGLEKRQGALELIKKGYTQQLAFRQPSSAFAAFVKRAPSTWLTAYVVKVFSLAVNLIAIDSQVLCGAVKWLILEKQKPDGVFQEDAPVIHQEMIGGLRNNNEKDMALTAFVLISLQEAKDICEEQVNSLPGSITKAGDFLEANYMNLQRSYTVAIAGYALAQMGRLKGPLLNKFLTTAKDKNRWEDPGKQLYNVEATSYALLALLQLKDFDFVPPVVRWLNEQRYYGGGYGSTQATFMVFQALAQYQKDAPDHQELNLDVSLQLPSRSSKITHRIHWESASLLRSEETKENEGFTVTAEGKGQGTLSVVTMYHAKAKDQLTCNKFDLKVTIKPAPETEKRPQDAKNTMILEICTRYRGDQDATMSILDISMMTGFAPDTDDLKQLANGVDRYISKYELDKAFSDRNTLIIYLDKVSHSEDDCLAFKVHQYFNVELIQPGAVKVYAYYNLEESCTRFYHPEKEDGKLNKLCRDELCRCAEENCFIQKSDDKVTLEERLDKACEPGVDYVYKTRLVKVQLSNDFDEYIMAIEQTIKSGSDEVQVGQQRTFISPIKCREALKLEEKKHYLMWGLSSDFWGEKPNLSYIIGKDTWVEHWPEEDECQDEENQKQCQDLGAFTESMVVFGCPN

IC50: 545 nM
Compound: CC[C@H](C)[C@H](NC(C)=O)C(=O)N[C@H]1CSSC[C@@H](C(=O)N[C@H](C(N)=O)[C@@H](C)O)NC(=O)[C@H](CCCNC(=N)N)NC(=O)[C@H](Cc2c[nH]cn2)NC(=O)[C@H](C)NC(=O)CNC(=O)[C@H](Cc2c[nH]c3ccccc23)NC(=O)[C@H](CC(=O)O)NC(=O)[C@H](CCC(N)=O)NC(=O)[C@H](Cc2ccc3ccccc3c2)NC(=O)[C@H](C(C)C)NC1=O
